Measurements taken from patent US20240342121A1, “THE USE OF BETA-HYDROXYBUTYRATES FOR THE TREATMENT OR PREVENTION OF ANEURYSMS AND DISSECTIONS” (priority 2021, published 2024).
Entries after “also recorded” stand apart in the source; their conditions may differ.

Legend:
[1] = tested on: lysine β-hydroxybutyrylation (KβHB); assay: Immunoblotting of lysine β-hydroxybutyrylation (KβHB) in SMCs; format: cell-based; conditions: FIG. 15A
Excerpt: FIGS. 15A-15B show immunoblotting of lysine β-hydroxybutyrylation (KβHB) on whole cell lysate (WCL) and fractionated lysate. (b) Immunofluorescent staining of SMA, KβHB, and DAPI on abdominal aorta.
Since epigenetic regulation directly affects the activity of transcriptional factors, such as Oct4, we evaluated if βHB is related to histone remodeling. βHB is a substrate of acyltransferase resulting in β-hydroxybutyrylation, a unique posttranslational modification that controls protein activity or gene expression. We hypothesize that β-hydroxybutyrylation on histone induces histone remodeling facilitating cellular reprogramming. To determine that β-hydroxybutyrylation (KβHB) is observed in senescent SMCs or aneurysms, we applied a specific antibody detecting KβHB modified protein. […] Together, it is supposed that β-hydroxybutyryl histone triggers the reprogramming process of senescent SMCs by regulating Oct4, which is overexpressed in aneurysms.

[2] = tested on: Oct4 overexpressed senescent SMCs; assay: Oct4 overexpressed senescent SMCs (SA β-Gal, Western blot); format: cell-based
Excerpt: FIGS. 14A-14B show (a) SA β-Gal activity on Oct4 overexpressed SMCs with or without βHB treatment (2 days). Irradiated SMCs were infected by Lentivirus containing Crispr-dCas9-VP64_Oct4 plasmid prior to treating βHB. The arrow indicates localized senescent cell mass. (b) Western blot analysis after lentivirus (Crispr-dCas9-VP64_Oct4) infection into senescent SMCs without βHB treatment for 1 day or 2 days.
We proposed that Oct4 upregulation in senescence forms senescent spheroid-like cell mass and asymmetric configuration of aneurysms. To validate our central hypothesis, we overexpressed Oct4 in senescent SMCs using the CRISPR-dCas9-VP64 system to determine the role of Oct4. […] Localized increase of senescence may be highly associated with asymmetric dilation of aneurysms. […] We supposed that βHB prevents or reverses Oct4-induced senescence of SMCs, consequently reducing the size of aneurysms. To investigate the role of βHB in aneurysms, we assess the possibility of cellular reprogramming in senescent SMCs in the condition of Oct4 overexpression. […] In particular, a moderate increase of FAP (Fibroblast Activation Protein) provides a potential for reprogramming resulting in transdifferentiation of SMCs to myofibroblast. Recovered SM22 expression in Oct4 overexpressed senescent SMCs supposed that βHB converts the Oct4 function in dedifferentiation into a reprogramming-related role. We considered an βHB-induced epigenetic alteration of senescent cells contributing to Oct4-dependent cellular reprogramming based on this unique observation.

[3] = tested on: angiotensin II (AII)-induced AAA; assay: AII-induced AAA mouse model, post-treatment; format: in vivo
Excerpt: To determine if senescence is a major cause of aneurysm development, the association between senescence and aneurysms using the angiotensin II (AII)-induced AAA model was investigated. Mice were infused AII for four weeks using osmotic mini-pump implantation into Apoe^−/− transgenic mouse.
To investigate the therapeutic potential of ketotherapy for abdominal aortic aneurysm (AAA), Ketogenic-diet (KD) and Ketone-ester (KE) were provided to angiotensin II (AII)-induced mouse model of AAA (FIG. 6). […] After completing AII infusion, the mice were post-treated with KD and KE for two to four weeks.
To investigate the time-dependent reduction of aorta diameter, the inner diameter of the aorta using ultrasound analysis was measured.

Q: For `C[C@@H](O)CC(=O)O` [βHB, (R)-3-Hydroxybutyrate], which “KβHB modified proteins, Western blot” value [1] is on record?
A: Its value is “increases KβHB modified proteins”.

Q: And the “SM22 and β-galactosidase in Oct4 overexpressed-senescent cells” value ([2]; Oct4 overexpressed, FIG. 14B)?
A: The value was “recovers SMC maturation marker (SM22) and reduced senescence marker (β-galactosidase)”.

Q: And the “localized senescence, SA β-Gal activity” value ([2]; Oct4 overexpression by CRISPR-dCas9-VP64, FIG. 14A)?
A: The value was “significantly reverses or prevents the development of localized senescence”.

Q: What about the “SM22 in senescent SMCs without Oct4 activation” value ([2]; without Oct4 activation, FIG. 14B) of the same molecule?
A: The value was “does not recover SM22”.

Q: And the “TUNEL assay, apoptosis of senescent plaque in the aneurysm” value ([3]; FIG. 2H)?
A: Its value is “induced targeted apoptosis of senescent plaque”.

Q: What about the “abdominal aorta stiffness, Pulse Wave Velocity (PWV)” value ([3]; FIG. 3H, FIG. 18A) of the same molecule?
A: The value was “ameliorated vascular stiffness; also recorded: reversed aneurysm-associated aortic stiffness”.

Q: What about the “KβHB modified protein in abdominal aorta” value ([3]; in vivo, immunofluorescent staining, FIG. 15B) of the same molecule?
A: Its value is “increases KβHB modified protein in nuclear”.

Q: What about the “AAA rate after post-treating” value ([3]; incidence of AAA by angiotensin II infusion 67%, n=10, FIG. 9D) of the same molecule?
A: Its value is 47%.

Q: What about the “AAA on whole aorta images” value ([3]; injected every other day for two weeks, FIG. 2D) of the same molecule?
A: The value was “successfully rescued”.

Q: And the “myofibroblast, SM α-Actin and FSP co-staining in aortic wall” value ([3]; post-treatment, FIGS. 17A-17B)?
A: The value was “increases”.
